According to ChEMBL document CHEMBL1123416, “Imidazo[2,1-b]benzothiazoles. 2. New immunosuppressive agents” (1986):

How the values were obtained:
Mus musculus [1] = experiment: Significant suppressive activity of delayed type hypersensitivity (DTH) with out inhibition of humoral immunity in mice by oral administration at dose of 400 mg/kg; format: functional
Mus musculus [2] = experiment: Significant suppressive activity of delayed type hypersensitivity (DTH) with out inhibition of humoral immunity in mice by oral administration at dose of 50 mg/kg; format: functional

SMILES | Increase in ear thickness (Mus musculus [1]) | inhibition in vivo at 400 mg/kg (Mus musculus [1]) | Increase in ear thickness (Mus musculus [2]) | inhibition in vivo at 50 mg/kg (Mus musculus [2])
c1ccc(-c2cn3c(n2)sc2ccccc23)cc1 | 5.7 1/100mm | 1.7% | 6 1/100mm | -3.4%
CC(=O)Nc1cccc(-c2cn3c(n2)sc2ccccc23)c1 | 3.9 1/100mm | 26% | 3.5 1/100mm | 34%
Nc1cccc(-c2cn3c(n2)sc2ccccc23)c1 | 4.3 1/100mm | 18.9% | 4.1 1/100mm | 22.6%
O=C(O)c1cccc(-c2cn3c(n2)sc2ccccc23)c1 | 3.2 1/100mm | 25.6% | 2.8 1/100mm | 34.9%
COC(=O)c1ccc(-c2cn3c(n2)sc2ccccc23)cc1 | 4.9 1/100mm | 14% | 6 1/100mm | -5.3%
COc1ccccc1-c1cn2c(n1)sc1ccccc12 | 4.7 1/100mm | 17.5% | 5.5 1/100mm | 3.5%
Clc1ccccc1-c1cn2c(n1)sc1ccccc12 | 6.3 1/100mm | -21.2% | 5 1/100mm | 3.8%
COc1cccc(-c2cn3c(n2)sc2ccccc23)c1 | 2.1 1/100mm | 34.4% | 2.8 1/100mm | 12.5%
COC(=O)c1cccc(-c2cn3c(n2)sc2cc(O)ccc23)c1 | 5.1 1/100mm | -24.4% | 3.8 1/100mm | 7.3%
O=C(O)c1ccc(-c2cn3c(n2)sc2ccccc23)cc1 | 2.9 1/100mm | 49.1% | 3.8 1/100mm | 33.3%
COC(=O)c1cccc(-c2cn3c(n2)sc2ccccc23)c1 | 1.9 1/100mm | 64.2% | 1.9 1/100mm | 64.2%
Oc1cc(O)cc(-c2cn3c(n2)sc2ccccc23)c1 | 3.6 1/100mm | 21.7% | 5.8 1/100mm | -26.1%
Oc1cc(-c2cn3c(n2)sc2ccccc23)ccc1Cl | 3.7 1/100mm | 14% | 2.4 1/100mm | 44.2%
Clc1ccc(-c2cn3c(n2)sc2ccccc23)cc1 | 5.9 1/100mm | 14.5% | 4.8 1/100mm | 30.4%
Oc1cccc(-c2cn3c(n2)oc2ccccc23)c1 | 2.9 1/100mm | 9.4% | 2.6 1/100mm | 18.8%
Cc1ccc(-c2cn3c(n2)sc2ccccc23)cc1S(C)(=O)=O | 4.9 1/100mm | 3.9% | 1.9 1/100mm | 53.7%
COC(=O)c1cc(-c2cn3c(n2)sc2ccccc23)ccc1O | 2.3 1/100mm | 42.5% | 4.2 1/100mm | -5%
Cc1ccc(-c2cn3c(n2)sc2ccccc23)cc1O | 3.2 1/100mm | 39.6% | 3.3 1/100mm | 37.7%
COc1ccc2nc(NC(=O)Nc3ccccc3)sc2c1 [FRENTIZOLE] |  |  | 3.5 1/100mm | 42.6%
